Patent US5534416A, “Fluorescent viability assay using cyclic-substituted unsymmetrical cyanine dyes” (Molecular Probes, Inc., priority 1993, dated 1996)
Like-named read-outs stand apart in the source and are kept apart here.

Columns and labels:
[1] = tested on: intact cells; conditions: cited from earlier work; for pH sensitivity / Loading / Retention: in words
[2] = tested on: calf thymus DNA; conditions: Table 5; bound to excess calf thymus DNA (50 bp/dye); cited from earlier work
[3] = tested on: DNA; assay: Quantum yield of dye on DNA versus fluorescein; assay type: physicochemical
Description: ^ Quantum yield (QY) of dye on DNA (standard solution in Tris buffere
saline adjusted to pH 10) in comparison with fluorescein, which is assume
to have a quantum yield of 0.92 under the test conditions.
(§1) Factors such as degree of fluorescence enhancement with nucleic acid binding, self quenching, molar extinction coefficient, membrane permeability, intracellular partitioning, nucleic acid binding affinity, and quantum yield contribute to the overall fluorescence of nucleic acid stains in cells. Enhanced cell fluorescence obtained with Dye I is related to unexpected properties other than quantum yield alone. Quantum yield is determined as described above (foot note to Table 2). Normalized quantum yield is determined to illustrate the fold-change in quantum yield of Dye I compared with thiazole orange, a related cell-permeant dye. The normalized fluorescence values represent the quantum yield of each dye divided by the quantum yield of thiazole orange. Fluorescence per cell is also scaled to thiazole orange values for both E. coli and S. aureus to allow direct comparison between relative (normalized) quantum yield and relative (normalized) fluorescence/cell.

[4] = tested on: K. pneumonia; assay: Fluorescence per cell, stained bacteria (microtiter plate reader); assay type: cell-based, Klebsiella pneumonia; conditions: optimal dye concentration, corrected for cell number
Description: (§2) 1. Measured in a fluorescence microtiter plate reader with extraction and
(§3) emission filters at 485+/-10 and 530+/-12, respectively. Fluorescence dat
(§4) are corrected for cell number; but are not corrected for cell volume or
(§5) 2. Optimal dye concentrations determined as in Example 3.
(§6) 3. Suspension concentrations as used for Example 3.
(§7) A culture of E. coli is washed by centrifugation and resuspended in water to its original volume. Using Corning 96-well microtiter plates with flat bottoms, 150 μL volumes of suspension are loaded per well. A single well of sterile water is the well background standard. Using a Dynatech MR600 microplate reader equipped with a 410 nm filter, absorbance is determined for the initial volumes of suspension. The suspension is diluted seven times by serial ten-fold dilutions in water, 150 μL of suspension per well, and the absorbance measured for each dilution. Following the absorbance measurements, each dilution loaded into wells is further diluted 1:10 and plated in duplicate on nutrient growth agar. The colonies are counted and expressed as colony forming units per milliliter (cfu/mL). Using the turbidity of the dilution in the microtiter plate, the suspension is diluted to a density of about 1×10^9 cfu/mL.
(§8) The bacteria suspension, adjusted to a known density as described above, is diluted seven times by serial ten-fold dilutions in water; 150 μL of suspension per well. Three-fold serial dilutions of dye are used (30-0.04 μM); 50 μL of dye at 4× final concentration. Using Corning 96-well microtiter flat-bottom plates, a matrix is set up whereby the cell concentration decreases across the plate and the dye concentration decreases down the plate, final volume per well is 200 μL. The top row and first column are reserved for the control, sterile water. The plate is incubated at 37° C. for 30 minutes, then read in a Millipore Cytofluor™ 2350 96-well fluorescence microplate reader at a fixed excitation of 485+/-10 nm and each of three emission wavelengths, 530+/-12, 620+/-20, or 645+/-20 nm. The results determine the best dye range (30-1 μM) and the best cell concentrations (concentrated through first three ten-fold dilutions) for optimal dye loading. […] Using the four dye dilutions and the four bacterial dilutions, many bacteria and dyes can be assayed quickly. The data collected allow the determination of optimal dye and cell concentration required for maximal fluorescence intensity per cell.

[5] = tested on: S. sonnei; assay: as above; assay type: cell-based, Shigella sonnei; conditions: optimal dye concentration, corrected for cell number
Description: as §2, §3, §4, §5, §6, §7, §8

[6] = tested on: P. aeruginosa; assay: as above; assay type: cell-based, Pseudomonas aeruginosa; conditions: optimal dye concentration, corrected for cell number
Description: as §2, §3, §4, §5, §6, §7, §8

[7] = tested on: S. aureus; assay: as above; assay type: cell-based, Staphylococcus aureus
Description: as §2, §3, §4, §5, §6, §1, §7, §8

[8] = tested on: E. coli; assay: as above; assay type: cell-based, Escherichia coli
Description: as §2, §3, §4, §5, §6, §1, §7, §8

[9] = tested on: nucleic acids; assay: Excitation/emission maxima of dyes complexed with nucleic acids; assay type: physicochemical; set-up: key: wavelength in nm; conditions: Table 2; dye complexed with nucleic acids
Description: Dye I is lightly colored and is virtually non-fluorescent when diluted in aqueous solution according to the method of the invention. Dye I is highly membrane-permeant and labels all cells, whether live or dead. When Dye I binds with intracellular nucleic acid polymers such as DNA and RNA, the resultant dye-nucleic acid complex becomes extremely fluorescent upon illumination. The quantum yield of the preferred Dye I/DNA complex is greater than 0.02, typically greater than 0.1, preferably greater than 0.2, and more preferably greater than 0.3. Typically, Dye I combines with intracellular nucleic acids to give a green or red fluorescence. When excited at a wavelength between about 300 nm and about 500 nm, the dyes complexed with nucleic acids have an emission maximum between about 500 and about 610 nm (see Table 2). Preferably, Dye I complexed with nucleic acids has an emission maximum of between about 500 nm and about 535 nm, resulting in a true green fluorescent signal in cells of the sample where Dye I is present alone.

[10] = tested on: M. luteus; assay: Fluorescence per cell, stained bacteria (microtiter plate reader); assay type: cell-based, Micrococcus luteus; conditions: optimal dye concentration, corrected for cell number
Description: as §2, §3, §4, §5, §6, §7, §8

[11] = tested on: S. pyogenes; assay: as above; assay type: cell-based, Streptococcus pyogenes; conditions: optimal dye concentration, corrected for cell number
Description: as §2, §3, §4, §5, §6, §7, §8

[12] = tested on: B. cereus; assay: as above; assay type: cell-based, Bacillus cereus; conditions: optimal dye concentration, corrected for cell number
Description: as §2, §3, §4, §5, §6, §7, §8

[13] = tested on: S. oranienburg; assay: as above; assay type: cell-based, Salmonella oranienburg; conditions: optimal dye concentration, corrected for cell number
Description: as §2, §3, §4, §5, §6, §7, §8

5-(and-6)-Carboxy-2',7'-dichloro-fluorescein diacetate
pH sensitivity [1]: Lower pH-

CC(=O)OCOC(=O)c1ccc2c(c1)C(=O)OC21c2ccc(OC(C)=O)cc2Oc2cc(OC(C)=O)ccc21 [5-Carboxyfluorescein diacetate AM]
T1/2 (time for half of dye to leak from intact cells) ([1]; 37° C.): < 30 min | Loading [1]: readily loaded | Retention [1]: Moderate

CC(=O)OCOC(=O)CN(CC(=O)OCOC(C)=O)Cc1c(O)ccc2c(C)cc(=O)oc12 [Calcein Blue AM]
T1/2 (time for half of dye to leak from intact cells) ([1]; "probably", temperature not stated): < 15 min | Loading [1]: Easily loaded

CC(=O)Oc1ccc2c(c1)Oc1cc(OC(C)=O)ccc1C21OC(=O)c2ccccc21 [Fluorescein diacetate]
T1/2 (time for half of dye to leak from intact cells) ([1]; 37° C.): < 10 min | Loading [1]: Easily loaded | Retention [1]: poorly retained

O=C(O)c1ccccc1C1c2cc(Cl)c(O)cc2Oc2cc(O)c(Cl)cc21 [H2 DCF]
Retention [1]: poor retention | pH sensitivity [1]: pH-insensitive

C[n+]1c(C=C2C=CN(CCC[N+](C)(C)CCC[N+](C)(C)CCCN3C=CC(=Cc4oc5ccccc5[n+]4C)c4ccccc43)c3ccccc32)oc2ccccc21 [YOYO-1]
EM max [2]: 509 nm | EX max [2]: 491 nm

C[n+]1c(C=CC=C2C=CN(CCC[N+](C)(C)CCC[N+](C)(C)CCCN3C=CC(=CC=Cc4oc5ccccc5[n+]4C)c4ccccc43)c3ccccc32)oc2ccccc21 [YOYO-3]
EM max [2]: 631 nm | EX max [2]: 612 nm

C[n+]1c(C=C2C=C(Cl)N(c3ccccc3)c3ccccc32)sc2ccccc21 [compound 591]
Normalized QY ([3]; QY divided by QY of thiazole orange): 0.5 | QY (DNA) ([3]; Table 2, Tris buffered saline pH 10, fluorescein assumed 0.92): 0.09 | QY ([3]; Table 7, on DNA, fluorescein reference): 0.09 | Fluorescence/Cell (ex 485/em 530) [4]: 2 | Fluorescence/Cell (ex 485/em 530) [5]: 1 | Fluorescence/Cell (ex 485/em 530) [6]: 1 | Fluorescence/Cell (ex 485/em 530) ([7]; S. aureus, optimal dye concentration, corrected for cell number): 3 | Normalized Fluorescence/cell (ex 485 nm/em 530 nm), Staphylococcus aureus ([7]; scaled to thiazole orange): 0.9 | Fluorescence/Cell (ex 485/em 530) ([8]; E. coli, optimal dye concentration, corrected for cell number): 2 | Normalized Fluorescence/cell (ex 485 nm/em 530 nm), Escherichia coli ([8]; scaled to thiazole orange): 1 | EM max [9]: 532 | EX max [9]: 509 | Fluorescence/Cell (ex 485/em 530) [10]: 375 | Fluorescence/Cell (ex 485/em 530) [11]: < 0.01 | Fluorescence/Cell (ex 485/em 530) [12]: 58 | Fluorescence/Cell (ex 485/em 530) [13]: 2
